For experiment [1], the target named is T1, TLR8 (Homo sapiens, UniProt Q9NR97).
T1 sequence (Q9NR97 27-1041): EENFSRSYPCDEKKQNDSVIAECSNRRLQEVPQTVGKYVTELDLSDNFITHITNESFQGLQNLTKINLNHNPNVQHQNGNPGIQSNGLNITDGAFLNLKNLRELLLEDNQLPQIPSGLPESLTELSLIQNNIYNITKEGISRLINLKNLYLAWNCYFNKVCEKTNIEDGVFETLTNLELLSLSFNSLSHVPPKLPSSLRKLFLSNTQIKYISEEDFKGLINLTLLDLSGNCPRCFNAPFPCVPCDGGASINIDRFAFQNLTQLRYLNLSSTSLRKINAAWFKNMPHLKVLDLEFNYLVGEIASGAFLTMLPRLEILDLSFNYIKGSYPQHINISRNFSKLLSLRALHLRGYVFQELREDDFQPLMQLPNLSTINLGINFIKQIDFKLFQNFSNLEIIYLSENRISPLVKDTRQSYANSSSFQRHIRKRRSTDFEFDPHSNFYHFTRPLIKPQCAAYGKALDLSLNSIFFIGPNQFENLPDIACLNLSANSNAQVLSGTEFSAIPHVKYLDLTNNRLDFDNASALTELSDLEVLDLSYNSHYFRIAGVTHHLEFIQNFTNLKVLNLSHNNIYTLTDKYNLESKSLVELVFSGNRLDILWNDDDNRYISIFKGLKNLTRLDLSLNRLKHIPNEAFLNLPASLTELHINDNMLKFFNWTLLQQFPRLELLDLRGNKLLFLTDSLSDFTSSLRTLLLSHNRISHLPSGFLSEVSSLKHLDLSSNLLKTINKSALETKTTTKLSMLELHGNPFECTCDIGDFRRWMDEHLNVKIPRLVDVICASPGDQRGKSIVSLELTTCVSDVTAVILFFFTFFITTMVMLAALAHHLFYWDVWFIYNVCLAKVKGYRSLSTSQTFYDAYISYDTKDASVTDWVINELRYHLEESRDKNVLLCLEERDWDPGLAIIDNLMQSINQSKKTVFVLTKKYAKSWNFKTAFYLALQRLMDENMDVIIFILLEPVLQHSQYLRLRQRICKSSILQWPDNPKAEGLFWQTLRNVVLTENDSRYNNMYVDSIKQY
The experiment can be described thus: Reporter gene assay, HEK-Blue TLR8 reporter cells (SEAP).
Protocol: (§1) 3×10^4 HEK-Blue™ TLR7 or 3×10^4 TLR8 reporter cells (InvivoGen, San Diego, CA) were treated with titrated (4-fold) amounts of test compound. […] Cells were incubated overnight at 37° C. and 5% CO2, then absorbance (620 and 655 nm) was read on a Synergy™ H1 microplate reader.

Experiment [2] deals with PBMCs. The experiment can be described thus: PBMC assay, IL-6 release (HTRF). The class given is cell-based. Particulars: PBMCs from healthy donors, overnight, IL-6 induction by HTRF, average of quadruplicate.
Experiment [3] deals with T2, TLR7 (Homo sapiens, UniProt Q9NYK1).
T2 sequence (Q9NYK1 27-1049): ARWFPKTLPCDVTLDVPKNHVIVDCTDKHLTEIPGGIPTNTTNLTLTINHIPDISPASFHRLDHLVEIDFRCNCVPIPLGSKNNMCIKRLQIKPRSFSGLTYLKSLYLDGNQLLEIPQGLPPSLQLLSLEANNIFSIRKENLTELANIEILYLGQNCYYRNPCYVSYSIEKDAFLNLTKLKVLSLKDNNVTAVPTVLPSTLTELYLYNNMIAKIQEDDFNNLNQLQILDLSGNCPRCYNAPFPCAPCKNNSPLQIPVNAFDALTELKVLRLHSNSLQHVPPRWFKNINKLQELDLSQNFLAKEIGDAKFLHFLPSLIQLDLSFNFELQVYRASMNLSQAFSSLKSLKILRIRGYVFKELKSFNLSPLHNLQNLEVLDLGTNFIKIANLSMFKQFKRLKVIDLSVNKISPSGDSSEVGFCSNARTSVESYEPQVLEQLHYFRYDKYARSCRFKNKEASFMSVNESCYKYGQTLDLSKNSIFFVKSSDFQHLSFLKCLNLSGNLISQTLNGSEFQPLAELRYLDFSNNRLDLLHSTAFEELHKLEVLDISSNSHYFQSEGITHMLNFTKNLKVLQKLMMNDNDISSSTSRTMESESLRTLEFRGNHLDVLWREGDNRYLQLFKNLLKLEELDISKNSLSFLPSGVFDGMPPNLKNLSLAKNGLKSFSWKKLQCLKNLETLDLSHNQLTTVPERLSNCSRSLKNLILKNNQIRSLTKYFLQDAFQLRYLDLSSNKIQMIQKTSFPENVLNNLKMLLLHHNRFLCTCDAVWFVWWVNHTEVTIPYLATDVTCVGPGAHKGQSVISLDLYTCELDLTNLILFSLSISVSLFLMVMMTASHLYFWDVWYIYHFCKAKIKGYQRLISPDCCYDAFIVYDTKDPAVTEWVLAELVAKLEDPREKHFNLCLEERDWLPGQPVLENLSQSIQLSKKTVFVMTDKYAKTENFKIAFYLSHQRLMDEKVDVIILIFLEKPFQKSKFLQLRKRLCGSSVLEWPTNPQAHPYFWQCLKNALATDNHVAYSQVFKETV
The experiment can be described thus: Reporter gene assay, HEK-Blue TLR7 reporter cells (SEAP).
Protocol: as §1

For experiment [4], the system named is PBMCs. The experiment can be described thus: PBMC assay, TNF-α release (HTRF). The note with it: PBMCs from healthy donors, overnight, TNF-α induction by HTRF. The class given is cell-based. Here is the method: Whole peripheral blood was obtained from healthy donors. PBMCs were isolated from peripheral blood by density gradient centrifugation. […] Technologies, Vancouver, Canada) and centrifuged at 1200×G for 10 minutes in SepMate™ tubes (#15450, […] Technologies). The plasma layer containing PBMCs was poured into a new tube and washed twice. Isolated PBMCs were either used fresh or thawed from previously frozen. 1×10^5 PBMCs were cultured with titrating concentrations of compounds of Formula I overnight followed by assaying for cytokines by homogeneous time resolved fluorescence (HTRF). Compounds were dissolved in DMSO.

Structures are written as SMILES.

Data on eight compounds can be found in US20250179088A9 (ZYMEWORKS BC INC., priority 2020, published 2025).

Consider `CCCCc1nc2c(N)nc3ccsc3c2n1Cc1nc(CNCCCCCO)cs1` [Compound 236, 5-(((2-((4-amino-2-butyl-1H-imidazo[4,5-d]thieno[3,2-b]pyridin-1-yl)methyl)thiazol-4-yl)methyl)amino)pentan-1-ol], for which the EC50 was 73 nM in experiment [1], 310 nM in experiment [2], 310 nM in experiment [3] and > 1000 nM in experiment [4].

In the case of `CCCCc1nc2c(N)nc3ccsc3c2n1Cc1ccc(CNC2CCCN(C(=O)OC(C)(C)C)C2)cc1` (stereo not shown) [Compound 262, tert-butyl 3-((4-((4-amino-2-butyl-1H-imidazo[4,5-d]thieno[3,2-b]pyridin-1-yl)methyl)benzyl)amino)piperidine-1-carboxylate], the results for the half-maximal effective concentration (EC50) in experiment [1], in experiment [2] and in experiment [3] were > 1000 nM, > 1000 nM and 95 nM, respectively.

As to `CCCCc1nc2c(N)nc3ccsc3c2n1Cc1cccc(CN2CCNCC2)c1` [Compound 214, 2-butyl-1-(3-(piperazin-1-ylmethyl)benzyl)-1H-imidazo[4,5-d]thieno[3,2-b]pyridin-4-amine], the EC50 was > 1000 nM in experiment [1], 750 nM in experiment [2] and 63 nM in experiment [3].

As for `CCCCc1nc2c(N)nc3ccsc3c2n1Cc1cccc(CN2CCN(CCN3CCOCC3)CC2)c1` [Compound 200, 2-butyl-1-(3-((4-(2-morpholinoethyl)piperazin-1-yl)methyl)benzyl)-1H-imidazo[4,5-d]thieno[3,2-b]pyridin-4-amine], the results for the EC50 in experiment [1], in experiment [2] and in experiment [3] were > 1000 nM, > 1000 nM and 550 nM, respectively.

Turning to `CCCCc1nc2c(N)nc3ccsc3c2n1Cc1ccc(CNCCNC(=O)OC(C)(C)C)cc1` [Compound 160, tert-butyl (2-((4-((4-amino-2-butyl-1H-imidazo[4,5-d]thieno[3,2-b]pyridin-1-yl)methyl)benzyl)amino)ethyl)carbamate], the EC50 in experiment [1] was > 1000 nM; in experiment [2], 32 nM; in experiment [3], 8.7 nM.

As to `CCCCc1nc2c(N)nc3ccsc3c2n1CCCCCNCc1cc[nH]c1` [Compound 183, 1-(5-(((1H-pyrrol-3-yl)methyl)amino)pentyl)-2-butyl-1H-imidazo[4,5-d]thieno[3,2-b]pyridin-4-amine], the results for the concentration for a half-maximal effect (EC50) in experiment [1], in experiment [2] and in experiment [3] were > 1000 nM, > 1000 nM and 34 nM, respectively.

For `CCCCc1nc2c(N)nc3ccsc3c2n1Cc1ccccc1CN` [Compound 216, 1-(2-(aminomethyl)benzyl)-2-butyl-1H-imidazo[4,5-d]thieno[3,2-b]pyridin-4-amine], the concentration giving a half-maximal response (EC50) in experiment [1], in experiment [2] and in experiment [3] was > 1000 nM in each case.

Consider `CCCCc1nc2c(N)nc3ccsc3c2n1Cc1ccccc1CNCCCN1CCN(CCCN)CC1` [Compound 215, 1-(2-(((3-(4-(3-aminopropyl)piperazin-1-yl)propyl)amino)methyl)benzyl)-2-butyl-1H-imidazo[4,5-d]thieno[3,2-b]pyridin-4-amine], for which the EC50 in experiment [1], in experiment [2] and in experiment [3] was > 1000 nM each time.
